Data reported in ChEMBL document CHEMBL1201862, “PubChem BioAssay data set” (2004).
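A five-concentration, 48-hour dose response in 96-well plates underlies each endpoint, interpolated linearly between surrounding concentrations. At the GI50, growth is halved.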 Activity calls are given as the source filed them. Cut-off read from the data, not from the text of the source: active = GI50 up to about 1.1 µM and inactive = higher.

Legend:
Experiment in all cases: growth of human tumour cells (NCI), 48 h
786-0 = test system: 786-0
KM-20L2 = test system: KM-20L2
UACC-257 = test system: UACC-257
SW-620 = test system: SW-620
OVCAR-5 = test system: OVCAR-5
A498 = test system: A498
SNB-19 = test system: SNB-19
KM12 = test system: KM12
OVCAR-8 = test system: OVCAR-8
RXF 393 = test system: RXF 393
Malme-3M = test system: Malme-3M
HOP-18 = test system: HOP-18
A549 = test system: A549
SF-295 = test system: SF-295
NCI-H522 = test system: NCI-H522
OVCAR-3 = test system: OVCAR-3
HCC 2998 = test system: HCC 2998
U-251 = test system: U-251
SK-MEL-28 = test system: SK-MEL-28
RPMI-8226 = test system: RPMI-8226
NCI-H226 = test system: NCI-H226
SR = test system: SR
TK-10 = test system: TK-10
LXFL 529 = test system: LXFL 529
LOX IMVI = test system: LOX IMVI
NCI-H23 = test system: NCI-H23
DLD-1 = test system: DLD-1
SK-MEL-5 = test system: SK-MEL-5
SN12C = test system: SN12C
MOLT-4 = test system: MOLT-4
DMS-273 = test system: DMS-273
COLO 205 = test system: COLO 205
M19-MEL = test system: M19-MEL
SNB-78 = test system: SNB-78
HCT-116 = test system: HCT-116
HCT-15 = test system: HCT-15
M14 = test system: M14
NCI-H460 = test system: NCI-H460
HT-29 = test system: HT-29
SF-539 = test system: SF-539
HOP-62 = test system: HOP-62
UACC-62 = test system: UACC-62
HL-60 = test system: HL-60
CAKI-1 = test system: CAKI-1
CCRF-CEM = test system: CCRF-CEM
K562 = test system: K562
XF498 = test system: XF498
OVCAR-4 = test system: OVCAR-4
IGROV-1 = test system: IGROV-1
HOP-92 = test system: HOP-92
SF-268 = test system: SF-268

**Q.** Which results are given for COC1OC(C)C(OC(=O)C(C)(C)C)C(C)(O)C1O (stereo unspecified)?
**A.** GI50 (786-0): > 100 µM (inactive); GI50 (KM-20L2): > 100 µM (inactive); GI50 (UACC-257): > 100 µM (inactive); GI50 (SW-620): > 100 µM (inactive); GI50 (OVCAR-5): > 100 µM (inactive); GI50 (A498): > 100 µM (inactive); GI50 (SNB-19): > 100 µM (inactive); GI50 (KM12): > 100 µM (inactive); GI50 (OVCAR-8): > 100 µM (inactive); GI50 (RXF 393): > 100 µM (inactive); GI50 (Malme-3M): > 100 µM (inactive); GI50 (HOP-18): > 100 µM (inactive); GI50 (A549): > 100 µM (inactive); GI50 (SF-295): > 100 µM (inactive); GI50 (NCI-H522): > 100 µM (inactive); GI50 (OVCAR-3): > 100 µM (inactive); GI50 (HCC 2998): > 100 µM (inactive); GI50 (U-251): > 100 µM (inactive); GI50 (SK-MEL-28): > 100 µM (inactive); GI50 (RPMI-8226): > 100 µM (inactive); GI50 (NCI-H226): > 10 µM (inactive); GI50 (SR): > 100 µM (inactive); GI50 (TK-10): > 100 µM (inactive); GI50 (LXFL 529): > 100 µM (inactive); GI50 (LOX IMVI): > 100 µM (inactive); GI50 (NCI-H23): > 100 µM (inactive); GI50 (DLD-1): > 100 µM (inactive); GI50 (SK-MEL-5): > 100 µM (inactive); GI50 (SN12C): > 100 µM (inactive); GI50 (MOLT-4): > 100 µM (inactive); GI50 (DMS-273): > 100 µM (inactive); GI50 (COLO 205): > 100 µM (inactive); GI50 (M19-MEL): > 100 µM (inactive); GI50 (SNB-78): 81.5 µM (inactive); GI50 (HCT-116): > 100 µM (inactive); GI50 (HCT-15): > 100 µM; GI50 (M14): > 100 µM (inactive); GI50 (NCI-H460): > 100 µM (inactive); GI50 (HT-29): > 100 µM (inactive); GI50 (SF-539): > 100 µM (inactive); GI50 (HOP-62): > 100 µM (inactive); GI50 (UACC-62): > 100 µM (inactive); GI50 (HL-60): > 100 µM (inactive); GI50 (CAKI-1): > 100 µM (inactive); GI50 (CCRF-CEM): > 100 µM (inactive); GI50 (K562): > 100 µM (inactive); GI50 (XF498): > 100 µM (inactive); GI50 (OVCAR-4): > 100 µM (inactive); GI50 (IGROV-1): > 100 µM (inactive); GI50 (HOP-92): > 100 µM (inactive); GI50 (SF-268): > 100 µM (inactive)
